Measurements as given in US20180362654A1, “Methods for Reducing or Preventing Growth of Tumors Resistant to EGFR and/or ErbB3 Blockade” (Regeneron Pharmaceuticals, Inc., priority 2015, published 2018).
Values belong to the compound of their own block, whether it stands above or below them.

What was measured:
[1] = system: ERK; test: ERK activation by western blot (phospho-ERK); type: cell-based, human; details: REGN1400 5 μg/ml, REGN955 10 μg/ml, AZD4547 25 nM
Procedure: (§1) For analysis of cell signaling by western blot, tumor cells were treated with the following reagents: ErbB3 blocking REGN1400, EGFR blocking antibody REGN955, MEK inhibitor GSK1120212 (Selleckchem), FGFR TKI AZD4547 (Selleckchem), MET TKI PHA665752 (Sigma), PI3K inhibitor BYL719, human NRG1 (R&D Systems), human EGF (R&D Systems). Following treatment, cell lysates were subjected to western blot with the following antibodies: phospho-ErbB3 (Cell Signaling Technology (CST), cat. #4561), EGFR (CST, cat. #2646), phospho-EGFR (CST, cat. #2234), Akt (CST, cat. #9272), phospho-Akt (CST, cat. #4060), ERK (CST, cat. #4695), phospho-ERK (CST, cat. #4370), MET (CST, cat. #8198), phospho-MET (CST, cat. #3077), ErbB3 (CST, cad.#4754), phospho-FGFR (CST, cat. #3476).

[2] = target: T1, MET (Homo sapiens, UniProt P08581); test: MET phosphorylation by western blot; type: cell-based; details: FaDu V2 cells; 100 nM PHA665752; 30 minutes
T1 construct: Fadu V2 cells that were treated for 30 minutes with control antibody; endogenous in cells
Excerpt: Following treatment, cell lysates were subjected to western blot with antibodies against phospho-ERK, ERK, phospho-MET and MET. […] Following treatment, cell lysates were subjected to western blot with the following antibodies: phospho-ErbB3 (Cell Signaling Technology (CST), cat. #4561), EGFR (CST, cat. #2646), phospho-EGFR (CST, cat. #2234), Akt (CST, cat. #9272), phospho-Akt (CST, cat. #4060), ERK (CST, cat. #4695), phospho-ERK (CST, cat. #4370), MET (CST, cat. #8198), phospho-MET (CST, cat. #3077), ErbB3 (CST, cad.#4754), phospho-FGFR (CST, cat. #3476).

[3] = system: NCI-H1975 cells; test: Tumor cell growth assay (MTS), NCI-H1975 cells expressing FGFR3-TACC3 fusion proteins; type: cell-based, human; details: 72 hours, 50 nM AZD9291
Procedure: (§2) The bar graphs show the relative cell growth in each treatment group, as determined by MTS assay. Error bars show the standard deviation, n=8. […] The bar graphs show the relative cell growth in each treatment group, as determined by MTS assay. Error bars show the SD, n=8. FIGS. 11C-11D respectively show SNU1076 or Detroit 562 cells expressing wild-type FGFR3 or FGFR3-TACC3 fusion proteins that were grown for 72 hours in the presence of vehicle or 5 μM PI3K inhibitor BYL719. The bar graphs show the relative cell growth in each treatment group, as determined by MTS assay. Error bars show the standard deviation, n=8. […] Cell lysates were prepared and subjected to western blot with antibodies against phospho-ERK, ERK, phospho-AKT, or AKT.
(§3) To assess tumor cell growth, 2-3,000 cells were plated in 96-well plates (n=8 replicate wells per treatment group) in serum-containing medium. The day after plating, the baseline (0 hour) cell number was determined by MTS assay using the CellTiter96 Aqueous One Solution Cell Proliferation Assay (Promega). […] At 72 hours, the final cell number was determined by MTS assay. The relative cell growth for each treatment group was determined by subtracting the baseline MTS reading from the final MTS reading. […]

[4] = system: AKT; test: AKT activation by western blot (phospho-AKT); type: cell-based, human; details: REGN1400 5 μg/ml, REGN955 10 μg/ml, AZD4547 25 nM
Procedure: as §1

[5] = system: FGFR3; test: FGFR3 phosphorylation by anti-phosphotyrosine immunoprecipitation and western blot; type: cell-based, human; details: FaDu V2 cells; 25 nM AZD4547; 1 hour
Procedure: FIGS. 4A-4F provide evidence that FGFR3 is activated in FaDu resistant variant cell lines and maintains ERK signaling upon EGFR blockade. […] Active RTKs of note are boxed and labeled. The unlabeled spots on the corners of the membranes are positive controls. […] The presence of FGFR3 and Src in the immunoprecipitates was assessed by western blot. […] Following treatment, cell lysates were subjected to western blot with antibodies against phospho-ERK, ERK, phospho-MET and MET. […] Following treatment, cell lysates were subjected to immunoprecipitation with anti-phosphotyrosine antibody 4G10 conjugated to agarose beads. The presence of FGFR3 and Src in the immunoprecipitates was assessed by western blot. […] Following treatment, cell lysates were subjected to western blot with antibodies against phospho-ERK, ERK, phospho-AKT and AKT.
To assess the tyrosine phosphorylation status of FGFR3-TACC3 fusion proteins in FaDu V1 and V2 cell lines, cells growing in 10 cm dishes were lysed in 1 ml of buffer (150 mM NaCl/20 mM Tris, pH 7.5/1% Triton X-100) containing Halt Protease and Phosphatase Inhibitor Cocktail (Thermo Scientific). […]

[6] = system: SNU1076 cells; test: Tumor cell growth assay (MTS), SNU1076 cells expressing FGFR3-TACC3 fusion proteins; type: cell-based, human; details: 72 hours, 5 μM BYL719
Procedure: as §2, §3

[7] = system: Detroit 562 cells; test: Tumor cell growth assay (MTS), Detroit 562 cells expressing FGFR3-TACC3 fusion proteins; type: cell-based, human; details: 72 hours, 5 μM BYL719
Procedure: as §2, §3

[8] = FaDu V2 cells, GSK1120212 100 nM, PHA665752 100 nM

T1 sequence (P08581 25-1390): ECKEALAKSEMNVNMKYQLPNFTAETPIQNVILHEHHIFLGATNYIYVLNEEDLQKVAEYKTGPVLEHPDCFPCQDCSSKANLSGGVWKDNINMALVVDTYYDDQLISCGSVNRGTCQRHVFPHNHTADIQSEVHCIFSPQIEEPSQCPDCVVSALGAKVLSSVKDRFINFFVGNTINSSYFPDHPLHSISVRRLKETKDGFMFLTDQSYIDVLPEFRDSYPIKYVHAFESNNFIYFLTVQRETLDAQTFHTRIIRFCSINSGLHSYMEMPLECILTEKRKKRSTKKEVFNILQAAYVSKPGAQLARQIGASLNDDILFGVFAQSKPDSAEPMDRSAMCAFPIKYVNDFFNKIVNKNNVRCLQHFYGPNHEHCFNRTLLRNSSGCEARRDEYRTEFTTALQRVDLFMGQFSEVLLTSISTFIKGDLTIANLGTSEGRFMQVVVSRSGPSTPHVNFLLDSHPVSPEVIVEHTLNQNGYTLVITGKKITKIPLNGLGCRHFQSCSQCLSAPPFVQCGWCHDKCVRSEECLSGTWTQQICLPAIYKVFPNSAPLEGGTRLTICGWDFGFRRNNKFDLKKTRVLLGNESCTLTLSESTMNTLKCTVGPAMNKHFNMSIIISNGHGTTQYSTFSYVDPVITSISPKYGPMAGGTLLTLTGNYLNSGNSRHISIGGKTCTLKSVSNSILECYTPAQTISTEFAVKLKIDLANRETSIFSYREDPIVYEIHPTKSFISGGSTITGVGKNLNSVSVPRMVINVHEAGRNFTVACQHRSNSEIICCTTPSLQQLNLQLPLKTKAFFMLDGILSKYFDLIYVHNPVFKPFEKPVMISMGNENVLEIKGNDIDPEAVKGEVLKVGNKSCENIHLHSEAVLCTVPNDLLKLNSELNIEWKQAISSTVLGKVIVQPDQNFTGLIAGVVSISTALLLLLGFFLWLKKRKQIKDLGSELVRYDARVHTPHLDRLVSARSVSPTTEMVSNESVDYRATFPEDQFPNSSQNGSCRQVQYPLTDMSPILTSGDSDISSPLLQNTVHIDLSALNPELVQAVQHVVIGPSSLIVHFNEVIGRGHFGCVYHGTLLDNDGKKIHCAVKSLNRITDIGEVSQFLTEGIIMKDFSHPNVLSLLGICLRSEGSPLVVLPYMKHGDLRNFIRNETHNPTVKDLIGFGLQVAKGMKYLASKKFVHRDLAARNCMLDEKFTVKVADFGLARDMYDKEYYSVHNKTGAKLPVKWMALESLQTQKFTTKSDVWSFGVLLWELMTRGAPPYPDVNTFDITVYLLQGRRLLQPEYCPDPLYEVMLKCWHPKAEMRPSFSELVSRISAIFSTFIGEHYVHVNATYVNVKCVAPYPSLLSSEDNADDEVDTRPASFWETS

- inhibition of MET phosphorylation [2]: completely blocking MET phosphorylation
Structure (SMILES): Cc1[nH]c(/C=C2\C(=O)Nc3ccc(S(=O)(=O)Cc4c(Cl)cccc4Cl)cc32)c(C)c1C(=O)N1CCC[C@@H]1CN1CCCC1 [PHA665752]
- inhibition of ERK activation [1, 8]: did not inhibit ERK activation

Structure (SMILES): C=CC(=O)Nc1cc(Nc2nccc(-c3cn(C)c4ccccc34)n2)c(OC)cc1N(C)CCN(C)C [AZD9291]
- growth inhibition in cells expressing FGFR3-TACC3 fusion proteins [3]: promote resistance

Structure (SMILES): COc1cc(CCc2cc(NC(=O)c3ccc(N4CC(C)NC(C)C4)cc3)n[nH]2)cc(OC)c1 (stereo not shown) [AZD4547]
- inhibition of ERK activation ([1]; FaDu V1 cells): either no effect or a partial effect
- inhibition of ERK activation [1, 8]: either no effect or a partial effect
- inhibition of AKT activation ([4]; FaDu V1 cells): no effect on AKT activation
- inhibition of AKT activation ([4]; FaDu V2 cells, GSK1120212 100 nM): no effect on AKT activation
- inhibition of FGFR3 phosphorylation [5]: completely blocked FGFR3 phosphorylation

Structure (SMILES): Cc1nc(NC(=O)N2CCC[C@H]2C(N)=O)sc1-c1ccnc(C(C)(C)C(F)(F)F)c1 [BYL719, alpelisib]
- growth inhibition in cells expressing FGFR3-TACC3 fusion proteins [6]: neither of the FGFR3-TACC3 fusion proteins was able to confer substantial resistance
- growth inhibition in cells expressing FGFR3-TACC3 fusion proteins [7]: neither of the FGFR3-TACC3 fusion proteins was able to confer substantial resistance
